Test results from PMC9518264, “Design and synthesis of novel quinazolinone-based derivatives as EGFR inhibitors with antitumor activity” (Journal of Enzyme Inhibition and Medicinal Chemistry, 2022).

What was measured:
[1] = test system: CCRF-CEM; assay: cells; format: cell-based
[2] = test system: NCI-H226; assay: cells; format: cell-based
[3] = test system: U251; assay: cells; format: cell-based
[4] = test system: MOLT-4; assay: cells; format: cell-based
[5] = test system: MALME-3M; assay: cells; format: cell-based
[6] = test system: OVCAR-3; assay: NCI 60 cell line antiproliferative screening (SRB), Ovarian cancer
[7] = test system: K-562; assay: cells; format: cell-based
[8] = test system: OVCAR-4; assay: cells; format: cell-based
[9] = test system: HCC-2998; assay: cells; format: cell-based
[10] = test system: BT-549; assay: cells; format: cell-based
[11] = test system: SF-268; assay: cells; format: cell-based
[12] = test system: SK-MEL-5; assay: cells; format: cell-based
[13] = test system: HOP-62; assay: cells; format: cell-based
[14] = test system: IGROV1; assay: cells; format: cell-based
[15] = test system: A549/ATCC; assay: cells; format: cell-based
[16] = test system: SF-539; assay: cells; format: cell-based
[17] = test system: panel of 60 tumour cell lines; assay: NCI 60 cell line antiproliferative screening (SRB), whole panel or subpanels (means, ranges, words); format: cell-based, human
[18] = test system: OVCAR-5; assay: cells; format: cell-based
[19] = test system: MCF7; assay: cells; format: cell-based
[20] = test system: DU-145; assay: cells; format: cell-based
[21] = test system: LOX IMIV; assay: cells; format: cell-based
[22] = test system: UACC-257; assay: cells; format: cell-based
[23] = test system: EKVX; assay: cells; format: cell-based
[24] = Homo sapiens, read-out: growth inhibition % (GI%)

Question: How did the TGI ([1]; 5 doses) turn out when `O=C(CSc1nc2ccccc2c(=O)n1-c1ccc(Cl)cc1)NN=Cc1ccc(Oc2ccc(Cl)cc2)cc1` [6d, N'-(4–(4-chlorophenoxy)benzylidene)-2-((3–(4-chlorophenyl)-4-oxo-3,4-dihydroquinazolin-2-yl)thio)acetohydrazide] was run?
Answer: 48.5 µM

Question: What about the GI50 ([1]; Homo sapiens) of the same molecule?
Answer: 3.09 µM

Question: And the CC50 ([1]; Homo sapiens, 5 doses, read-out: LC50 (the source's name))?
Answer: > 100 µM

Question: What about the inhibition at 10 µM [1, 24] of the same molecule?
Answer: > 100%

Question: What about the GI50 ([2]; Homo sapiens, NCI-H226) of the same molecule?
Answer: 2.46 µM

Question: And the inhibition at 10 µM ([2]; Homo sapiens, NCI-H226, read-out: growth inhibition % (GI%))?
Answer: 24.4%

Question: What about the LC50 (NCI-60 50% lethal concentration) ([2]; Homo sapiens, NCI-H226, 5 doses) of the same molecule?
Answer: 33.2 µM

Question: And the TGI ([2]; NCI-H226, 5 doses)?
Answer: 6.59 µM

Question: And the GI50 ([3]; Homo sapiens, U-251)?
Answer: 1.65 µM

Question: What about the inhibition at 10 µM ([3]; Homo sapiens, U-251, read-out: growth inhibition % (GI%)) of the same molecule?
Answer: > 100%

Question: And the CC50 ([3]; Homo sapiens, U-251, U251, 5 doses, read-out: LC50 (the source's name))?
Answer: 8.23 µM

Question: What about the TGI ([3]; U251, 5 doses) of the same molecule?
Answer: 3.69 µM

Question: What about the GI50 ([4]; Homo sapiens, MOLT-4) of the same molecule?
Answer: 2.29 µM

Question: What about the inhibition at 10 µM ([4]; Homo sapiens, MOLT-4, read-out: growth inhibition % (GI%)) of the same molecule?
Answer: > 100%

Question: And the CC50 ([4]; Homo sapiens, MOLT-4, 5 doses, read-out: LC50 (the source's name))?
Answer: 44.7 µM

Question: What about the TGI ([4]; MOLT-4, 5 doses) of the same molecule?
Answer: 9.23 µM

Question: And the GI50 ([5]; Homo sapiens, Malme-3M)?
Answer: 1.38 µM

Question: What about the inhibition at 10 µM ([5]; Homo sapiens, Malme-3M, read-out: growth inhibition % (GI%)) of the same molecule?
Answer: > 100%

Question: What about the CC50 ([5]; Homo sapiens, MALME-3M, 5 doses, read-out: LC50 (the source's name)) of the same molecule?
Answer: 5.55 µM

Question: What about the TGI ([5]; MALME-3M, 5 doses) of the same molecule?
Answer: 2.77 µM

Question: And the GI50 ([6]; Homo sapiens, OVCAR-3)?
Answer: 2.75 µM

Question: And the CC50 ([6]; Homo sapiens, OVCAR-3, read-out: LC50)?
Answer: 38.9 µM

Question: And the inhibition at 10 µM ([6]; Homo sapiens, OVCAR-3, read-out: growth inhibition % (GI%))?
Answer: < 15%

Question: What about the TGI ([6]; OVCAR-3, 5 doses) of the same molecule?
Answer: 9.55 µM

Question: And the GI50 ([7]; Homo sapiens, K562)?
Answer: 4.15 µM

Question: What about the inhibition at 10 µM ([7]; Homo sapiens, K562, read-out: growth inhibition % (GI%)) of the same molecule?
Answer: 77%

Question: What about the CC50 ([7]; Homo sapiens, K562, K-562, 5 doses, read-out: LC50 (the source's name)) of the same molecule?
Answer: > 100 µM

Question: What about the TGI ([7]; K-562, 5 doses) of the same molecule?
Answer: 20.2 µM

Question: What about the GI50 ([8]; Homo sapiens, OVCAR-4) of the same molecule?
Answer: 1.89 µM

Question: And the inhibition at 10 µM ([8]; Homo sapiens, OVCAR-4, read-out: growth inhibition % (GI%))?
Answer: 98.3%

Question: And the CC50 ([8]; Homo sapiens, OVCAR-4, 5 doses, read-out: LC50 (the source's name))?
Answer: 17.5 µM

Question: What about the TGI ([8]; OVCAR-4, 5 doses) of the same molecule?
Answer: 4.57 µM

Question: And the TGI ([9]; HCC-2998, 5 doses)?
Answer: 3.81 µM

Question: What about the GI50 ([9]; Homo sapiens, HCC 2998) of the same molecule?
Answer: 1.92 µM

Question: And the inhibition at 10 µM ([9]; Homo sapiens, HCC 2998, read-out: growth inhibition % (GI%))?
Answer: 79.7%

Question: What about the LC50 (lethal concentration 50%) ([9]; Homo sapiens, HCC-2998, 5 doses) of the same molecule?
Answer: 7.57 µM

Question: And the TGI ([10]; BT-549, 5 doses)?
Answer: 12.2 µM

Question: And the GI50 ([10]; Homo sapiens, BT-549)?
Answer: 3.28 µM

Question: And the inhibition at 10 µM ([10]; Homo sapiens, BT-549, read-out: growth inhibition % (GI%))?
Answer: > 100%

Question: What about the CC50 ([10]; Homo sapiens, BT-549, 5 doses, read-out: LC50 (the source's name)) of the same molecule?
Answer: 36.2 µM

Question: What about the GI50 ([11]; Homo sapiens, SF-268) of the same molecule?
Answer: 3.85 µM

Question: What about the inhibition at 10 µM ([11]; Homo sapiens, SF-268, read-out: growth inhibition % (GI%)) of the same molecule?
Answer: 44.2%

Question: What about the LC50 ([11]; Homo sapiens, SF-268, 5 doses) of the same molecule?
Answer: > 100 µM

Question: What about the TGI ([11]; SF-268, 5 doses) of the same molecule?
Answer: 23.9 µM

Question: What about the GI50 ([12]; Homo sapiens, SK-MEL-5) of the same molecule?
Answer: 1.75 µM

Question: What about the inhibition at 10 µM ([12]; Homo sapiens, SK-MEL-5, read-out: growth inhibition % (GI%)) of the same molecule?
Answer: 89.1%

Question: What about the CC50 ([12]; Homo sapiens, SK-MEL-5, 5 doses, read-out: LC50 (the source's name)) of the same molecule?
Answer: 7.07 µM

Question: And the TGI ([12]; SK-MEL-5, 5 doses)?
Answer: 3.51 µM

Question: What about the TGI ([13]; HOP-62, 5 doses) of the same molecule?
Answer: 4.05 µM

Question: What about the GI50 ([13]; Homo sapiens, HOP-62) of the same molecule?
Answer: 1.69 µM

Question: What about the inhibition at 10 µM ([13]; Homo sapiens, HOP-62, read-out: growth inhibition % (GI%)) of the same molecule?
Answer: 67.4%

Question: And the CC50 ([13]; Homo sapiens, HOP-62, 5 doses, read-out: LC50 (the source's name))?
Answer: 9.69 µM

Question: What about the GI50 ([14]; Homo sapiens, IGROV-1) of the same molecule?
Answer: 1.51 µM

Question: What about the inhibition at 10 µM ([14]; Homo sapiens, IGROV-1, read-out: growth inhibition % (GI%)) of the same molecule?
Answer: 79.4%

Question: And the CC50 ([14]; Homo sapiens, IGROV-1, IGROV1, 5 doses, read-out: LC50 (the source's name))?
Answer: 7.12 µM

Question: What about the TGI ([14]; IGROV1, 5 doses) of the same molecule?
Answer: 3.28 µM

Question: What about the TGI ([15]; A549/ATCC, 5 doses) of the same molecule?
Answer: 14.0 µM

Question: And the GI50 ([15]; Homo sapiens, A549)?
Answer: 3.25 µM

Question: And the inhibition at 10 µM ([15]; Homo sapiens, A549, read-out: growth inhibition % (GI%))?
Answer: 83.5%

Question: And the LC50 (lethal concentration, 50% cell kill) ([15]; Homo sapiens, A549/ATCC, 5 doses)?
Answer: 83.3 µM

Question: What about the GI50 ([16]; Homo sapiens, SF-539) of the same molecule?
Answer: 2.54 µM

Question: And the inhibition at 10 µM ([16]; Homo sapiens, SF-539, read-out: growth inhibition % (GI%))?
Answer: 30.3%

Question: And the CC50 ([16]; Homo sapiens, SF-539, 5 doses, read-out: LC50 (the source's name))?
Answer: 21.5 µM

Question: What about the TGI ([16]; SF-539, 5 doses) of the same molecule?
Answer: 6.32 µM

Question: What about the GI50 ([17]; Homo sapiens, 60 cell, read-out: GI50 range against most of the tested cancer cell lines) of the same molecule?
Answer: 1.29 to 5.97 µM

Question: And the inhibition at 10 µM ([17]; Homo sapiens, 60 cell, read-out: Mean growth inhibition % (mean GI%))?
Answer: 80.2%

Question: And the “TGI range against the rest of cell lines” value ([17]; five dose concentrations, good to moderate cytostatic activity)?
Answer: 11.1 to 48.5 µM

Question: And the “TGI range against 40 cancer cell lines” value ([17]; five dose concentrations, high cytostatic activity)?
Answer: 2.59 to 9.55 µM

Question: What about the GI50 ([18]; Homo sapiens, OVCAR-5) of the same molecule?
Answer: 2.27 µM

Question: What about the inhibition at 10 µM ([18]; Homo sapiens, OVCAR-5, read-out: growth inhibition % (GI%)) of the same molecule?
Answer: 29.4%

Question: What about the CC50 ([18]; Homo sapiens, OVCAR-5, 5 doses, read-out: LC50 (the source's name)) of the same molecule?
Answer: 32.2 µM

Question: And the TGI ([18]; OVCAR-5, 5 doses)?
Answer: 6.44 µM

Question: And the GI50 ([19]; Homo sapiens, MCF7)?
Answer: 2.01 µM

Question: What about the inhibition at 10 µM ([19]; Homo sapiens, MCF7, read-out: growth inhibition % (GI%)) of the same molecule?
Answer: 84.5%

Question: And the CC50 ([19]; Homo sapiens, MCF7, 5 doses, read-out: LC50 (the source's name))?
Answer: 25.6 µM

Question: What about the TGI ([19]; MCF7, 5 doses) of the same molecule?
Answer: 5.5 µM

Question: What about the TGI ([20]; DU-145, 5 doses) of the same molecule?
Answer: 20.4 µM

Question: What about the GI50 ([20]; Homo sapiens, DU-145) of the same molecule?
Answer: 3.52 µM

Question: What about the inhibition at 10 µM ([20]; Homo sapiens, DU-145, read-out: growth inhibition % (GI%)) of the same molecule?
Answer: 86.9%

Question: And the CC50 ([20]; Homo sapiens, DU-145, 5 doses, read-out: LC50 (the source's name))?
Answer: > 100 µM

Question: What about the inhibition at 10 µM ([21]; Homo sapiens, 60 cell, read-out: growth inhibition % (GI%)) of the same molecule?
Answer: > 100%

Question: What about the GI50 ([21]; Homo sapiens, LOX IMVI) of the same molecule?
Answer: 1.29 µM

Question: What about the CC50 ([21]; Homo sapiens, LOX IMVI, 5 doses, read-out: LC50 (the source's name)) of the same molecule?
Answer: 5.2 µM

Question: And the TGI ([21]; LOX IMVI, 5 doses)?
Answer: 2.59 µM

Question: What about the GI50 ([22]; Homo sapiens, UACC-257) of the same molecule?
Answer: 4.62 µM

Question: And the inhibition at 10 µM ([22]; Homo sapiens, UACC-257, read-out: growth inhibition % (GI%))?
Answer: 41%

Question: And the CC50 ([22]; Homo sapiens, UACC-257, 5 doses, read-out: LC50 (the source's name))?
Answer: > 100 µM

Question: What about the TGI ([22]; UACC-257, 5 doses) of the same molecule?
Answer: 22.5 µM

Question: And the TGI ([23]; 5 doses)?
Answer: 13.9 µM

Question: And the GI50 ([23]; Homo sapiens)?
Answer: 3.1 µM

Question: And the LC50 ([23]; Homo sapiens, 5 doses)?
Answer: 63.6 µM

Question: What about the inhibition at 10 µM [23, 24] of the same molecule?
Answer: 59.2%
